Measured values as given in publication PMC5034277, “High Fructose Diet inducing diabetes rapidly impacts olfactory epithelium and behavior in mice” (Scientific Reports, 2016).

Target: T1, MOR23 (Mus musculus, UniProt Q62007)
T1 construct: gene Or10j5; native full-length receptor in GFP-labelled olfactory sensory neurons of gene-targeted MOR23-IRES-tauEGFP mice, intact epithelium; untagged (IRES reporter)
T1 sequence (Q62007 1-309): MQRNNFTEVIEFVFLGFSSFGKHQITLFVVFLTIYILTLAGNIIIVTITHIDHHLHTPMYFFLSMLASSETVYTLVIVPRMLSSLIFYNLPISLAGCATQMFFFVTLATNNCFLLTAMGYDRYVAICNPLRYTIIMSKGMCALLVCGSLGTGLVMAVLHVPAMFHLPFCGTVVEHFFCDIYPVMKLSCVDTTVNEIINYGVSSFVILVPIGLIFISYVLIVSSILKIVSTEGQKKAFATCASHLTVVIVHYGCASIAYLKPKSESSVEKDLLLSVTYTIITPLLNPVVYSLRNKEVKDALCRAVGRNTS
Experiment: perforated patch-clamp of dendritic knob, peak transduction current, Hill fit
Type: cell-based
Conditions: neurons of control-diet mice; holding -67 mV; Ringer pH 7.6; pressure-delivered odorant; whole-neuron transduction read-out; read-out: K1/2

EC50: 3 ± 1 µM
SMILES: CC(C)(O)CCCC1=CCC(C=O)CC1 (stereo not shown) [Lyral]
